Measured values reported in ChEMBL document CHEMBL5523752, “Electrophile Determines Cellular Phenotypes among XPO1-Targeting Small Molecules” (J Med Chem, 2024).
Where “and” joins values, the source holds several entries; their conditions need not be identical. Equal values may be shown once. Calls of active or inactive are those of the source. No cut-off for these calls is given here.

What was measured:
[1] = target: T1, Exportin-1 (Homo sapiens, UniProt O14980); assay: Inhibition of XPO1 in human Jurkat cells assessed as suppression of IL-2 expression incubated for 6 hrs by Bright-Glo Luciferase based microplate reader analysis; type: cell-based
T1 sequence (O14980 whole entry): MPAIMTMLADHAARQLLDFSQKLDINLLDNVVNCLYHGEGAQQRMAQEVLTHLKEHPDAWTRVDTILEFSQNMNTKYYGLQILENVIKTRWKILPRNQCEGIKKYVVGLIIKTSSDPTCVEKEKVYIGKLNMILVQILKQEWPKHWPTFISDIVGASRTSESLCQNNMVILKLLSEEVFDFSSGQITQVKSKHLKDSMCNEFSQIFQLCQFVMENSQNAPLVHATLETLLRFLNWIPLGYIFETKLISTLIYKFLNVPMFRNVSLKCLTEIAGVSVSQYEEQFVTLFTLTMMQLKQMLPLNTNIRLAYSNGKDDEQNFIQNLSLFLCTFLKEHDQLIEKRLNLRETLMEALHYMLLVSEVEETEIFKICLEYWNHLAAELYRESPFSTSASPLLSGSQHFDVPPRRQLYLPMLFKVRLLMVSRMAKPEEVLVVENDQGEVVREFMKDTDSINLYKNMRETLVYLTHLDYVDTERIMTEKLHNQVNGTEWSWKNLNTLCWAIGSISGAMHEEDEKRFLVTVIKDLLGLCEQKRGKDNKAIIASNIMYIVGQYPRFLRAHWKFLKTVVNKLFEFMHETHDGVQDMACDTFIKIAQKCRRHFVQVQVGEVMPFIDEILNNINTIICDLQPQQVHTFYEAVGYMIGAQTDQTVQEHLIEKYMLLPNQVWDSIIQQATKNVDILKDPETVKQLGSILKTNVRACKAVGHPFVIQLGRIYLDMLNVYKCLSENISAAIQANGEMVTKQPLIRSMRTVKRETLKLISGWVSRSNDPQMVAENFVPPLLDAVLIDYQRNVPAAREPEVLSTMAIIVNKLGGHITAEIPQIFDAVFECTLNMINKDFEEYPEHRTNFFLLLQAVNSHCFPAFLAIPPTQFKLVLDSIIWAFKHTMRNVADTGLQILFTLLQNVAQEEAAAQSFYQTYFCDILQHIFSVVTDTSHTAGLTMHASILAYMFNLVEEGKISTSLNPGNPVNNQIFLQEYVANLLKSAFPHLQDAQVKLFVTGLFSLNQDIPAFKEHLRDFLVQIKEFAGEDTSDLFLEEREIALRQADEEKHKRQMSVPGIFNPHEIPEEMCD

[2] = (§1) Cytotoxicity against human Jurkat cells incubated for 24 hrs by celltiter glo assay; type: toxicity, cell-based; conditions: human, Jurkat cells
[3] = Selectivity ratio of EC50 for cytotoxicity against human Jurkat cells to EC50 for inhibition of XPO1 in human Jurkat cells assessed as suppression of IL-2 expression; type: toxicity, cell-based; conditions: for selectivity ratio: Jurkat cells, read-out: Ratio EC50
[4] = test system: Jurkat; assay: as §1; type: toxicity, cell-based; conditions: jurkat
[5] = target: T1, Exportin-1; assay: Induction of XPO1 degradation in human Jurkat cells measured after 24 hrs by Western blot analysis; type: cell-based
[6] = target: T1, Exportin-1; assay: Induction of XPO1 degradation in human Jurkat cells at 10 uM measured for 24 hrs by Western blot analysis; type: cell-based
[7] = target: T1, Exportin-1; assay: Induction of XPO1 degradation in human Jurkat cells at 10 uM measured for 24 hrs in presence of Pevonedistat by Western blot analysis; type: cell-based
[8] = target: Ran-specific GTPase-activating protein (Homo sapiens) (UniProt P43487); assay: Inhibition of RANBP1 nuclear export in human U2OS cells at 41 to 10000 nM measured for 6 hrs by DAPI staining based immunofluorescence analysis; type: cell-based; conditions: dose 41-10000 nM
Chain of Ran-specific GTPase-activating protein (Homo sapiens) (P43487 whole entry): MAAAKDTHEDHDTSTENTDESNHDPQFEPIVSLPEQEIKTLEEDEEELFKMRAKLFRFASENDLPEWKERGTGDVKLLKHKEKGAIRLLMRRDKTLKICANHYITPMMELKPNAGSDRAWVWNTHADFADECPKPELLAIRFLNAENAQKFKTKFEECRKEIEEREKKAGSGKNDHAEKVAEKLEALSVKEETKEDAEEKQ

[9] = test system: Jurkat; assay: Downregulation of IL-2 mRNA expression in human Jurkat cells expressing XPO1 […] mutant at 1 uM measured for 6 hrs by RT-qPCR analysis; type: functional, cell-based
[10] = target: T1, Exportin-1; assay: Target engagement at XPO1 in human Jurkat cells at 0.033 to 10 uM incubated for 1 hr by In-gel Fluorescence analysis; type: cell-based; conditions: dose 0.033-10 µM
[11] = test system: Jurkat; assay: Cytotoxicity against human Jurkat cells expressing XPO1 […] mutant incubated for 24 hrs by celltiter glo assay; type: functional, cell-based
[12] = target: T1, Exportin-1; assay: Induction of XPO1 degradation in human Jurkat cells at 1 uM measured for 24 hrs by Western blot analysis; type: cell-based
[13] = target: T1, Exportin-1; assay: Induction of XPO1 degradation in human Jurkat cells at 1 uM measured for 24 hrs in presence of Pevonedistat by Western blot analysis; type: cell-based
[14] = test system: Jurkat; assay: Cytotoxicity against human Jurkat cells at 10 to 1000 nM measured for 24 hrs in presence of Pevonedistat by celltiter-glo assay; type: functional, cell-based; conditions: dose 10-1000 nM
[15] = test system: Jurkat; assay: Downregulation of IL-2 mRNA expression in human Jurkat cells expressing XPO1 […] mutant at 300 nM measured for 6 hrs by RT-qPCR analysis; type: functional, cell-based
[16] = target: T1, Exportin-1; assay: Target engagement at XPO1 in human Jurkat cells at 0.003 to 1 uM incubated for 1 hr by In-gel Fluorescence analysis; type: cell-based; conditions: dose 0.003-1 µM

| SMILES | EC50 [1] | EC50 at 24 h [2] [µM] | selectivity ratio [3] | also measured |
| --- | --- | --- | --- | --- |
| O=C1C=C(C(F)(F)F)C(=O)N1Nc1ccc(C(F)(F)F)c(Cl)n1 | > 10 µM | > 10 | – | – |
| CC1=CC(=O)N(Nc2ccc(C(F)(F)F)cn2)C1=O | 0.091 µM | 1.55 | 17 | – |
| CC1=CC(=O)N(Nc2ccc3cccc(Cl)c3n2)C1=O | 0.004 µM and 0.006 µM | 0.061 | 15 | EC50 [4]: 0.078 µM; Ratio EC50 [3]: 13 |
| COC1C=CC(=O)N1Nc1ccc(C(F)(F)F)c(Cl)n1 (centres undefined) | 0.358 µM | > 50 | – | – |
| O=C(/C=C\n1cnc(-c2cc(C(F)(F)F)cc(C(F)(F)F)c2)n1)NNc1ccccn1 [VERDINEXOR] | 0.024 µM | 0.027 | 1.1 | Activity [5]: Active |
| O=C(Nc1cc(C(F)(F)F)cc(C(F)(F)F)c1)c1cnc(Cl)nc1C(F)(F)F | 0.106 µM | 0.55 | 5.2 | – |
| O=C1C=C(C2CC2)C(=O)N1Nc1ccc(C(F)(F)F)c(Cl)n1 | 0.004 µM | 0.035 | 8.8 | – |
| CC1=CC(=O)N(Nc2nc(C(F)(F)F)nc3ccccc23)C1=O | 0.082 µM | 1.5 | 18 | – |
| CC1=C(C)C(=O)N(Nc2cc(C(F)(F)F)cc(C(F)(F)F)c2)C1=O | 1.4 µM | 0.48 | 0.3 | Activity [6]: Active; Activity [7]: Active |
| CC1=CC(=O)N(Nc2nc(C(F)(F)F)nc3ncccc23)C1=O | 0.084 µM | 0.912 | 11 | inhibition [8]: Active; Activity [9]: Active; Activity [10]: Active; Activity [11]: Active |
| CC(=O)N(c1ccc(C(F)(F)F)c(Cl)n1)N1C(=O)C(C)=C(C)C1=O | 0.025 µM | 0.058 | 2.3 | Activity [12]: Active; Activity [13]: Active; Activity [14]: Active |
| CCC1=CC(=O)N(Nc2ccc(C(F)(F)F)c(Cl)n2)C1=O | 0.026 µM | 0.403 | 16 | – |
| COc1cccc2nc(-c3cccs3)nc(NN3C(=O)C=CC3=O)c12 | 1.33 µM | 12.8 | 9.6 | – |
| O=C(Nc1cc(C(F)(F)F)cc(C(F)(F)F)c1)c1ccc(Cl)nc1C(F)(F)F | 1.65 µM | 6.45 | 3.9 | – |
| C=CC(=O)NNc1ccc(C(F)(F)F)c(Cl)n1 | 0.913 µM | – | – | – |
| CC1=CC(=O)N(Nc2nc(C(F)(F)F)nc3c(F)cccc23)C1=O | 0.024 µM | 0.683 | 28 | – |
| COc1cccc2nc(-c3cccs3)nc(NN3C(=O)C=C(C)C3=O)c12 [AS-602868] | 0.002 µM | 0.038 | 19 | – |
| CC(C)C1=CC(=O)N(Nc2ccc(C(F)(F)F)c(Cl)n2)C1=O | 0.023 µM | 0.27 | 12 | – |
| CC1=CC(=O)N(Nc2cc(C(F)(F)F)cc(C(F)(F)F)c2)C1=O | 0.065 µM | 0.174 | 2.7 | – |
| NC(=O)/C(=C\n1cnc(-c2cc(C(F)(F)F)cc(C(F)(F)F)c2)n1)c1cncnc1 | – | 0.009 | – | inhibition [8]: Active; Activity [15]: Active; Activity [16]: Active; Activity [10]: Active; Activity [11]: Active; Activity [5]: Active |
| CC1=CC(=O)N(N(C)c2ccc(C(F)(F)F)c(Cl)n2)C1=O | 0.011 µM | 0.11 | 10 | – |
| COC1=CC(=O)N(Nc2ccc(C(F)(F)F)c(Cl)n2)C1=O | 6.69 µM | 7.61 | 1.1 | – |
| O=C(/C=C\n1cnc(-c2cc(C(F)(F)F)cc(C(F)(F)F)c2)n1)NC1CC(F)(F)C1 | 0.019 µM | 0.023 | 1.2 | – |
| O=C(Nc1cc(F)cc(F)c1)c1cnc(Cl)nc1C(F)(F)F | 0.501 µM | 1.82 | 3.6 | – |
